From patent US20250135006A1, “AMPHIPHILIC TLR7/8 ADJUVANTS AND USES THEREOF” (Pfizer Inc., priority 2023, published 2025) come the findings set out here.

pEC50: −log10 of the molar value.

In assay [1] the target is T1, human toll like receptor 7 (hTLR7) (Homo sapiens, UniProt Q9NYK1).
T1 construct: host or cells: HEK293 (HEK-Blue hTLR7)
T1 sequence (Q9NYK1 27-1049): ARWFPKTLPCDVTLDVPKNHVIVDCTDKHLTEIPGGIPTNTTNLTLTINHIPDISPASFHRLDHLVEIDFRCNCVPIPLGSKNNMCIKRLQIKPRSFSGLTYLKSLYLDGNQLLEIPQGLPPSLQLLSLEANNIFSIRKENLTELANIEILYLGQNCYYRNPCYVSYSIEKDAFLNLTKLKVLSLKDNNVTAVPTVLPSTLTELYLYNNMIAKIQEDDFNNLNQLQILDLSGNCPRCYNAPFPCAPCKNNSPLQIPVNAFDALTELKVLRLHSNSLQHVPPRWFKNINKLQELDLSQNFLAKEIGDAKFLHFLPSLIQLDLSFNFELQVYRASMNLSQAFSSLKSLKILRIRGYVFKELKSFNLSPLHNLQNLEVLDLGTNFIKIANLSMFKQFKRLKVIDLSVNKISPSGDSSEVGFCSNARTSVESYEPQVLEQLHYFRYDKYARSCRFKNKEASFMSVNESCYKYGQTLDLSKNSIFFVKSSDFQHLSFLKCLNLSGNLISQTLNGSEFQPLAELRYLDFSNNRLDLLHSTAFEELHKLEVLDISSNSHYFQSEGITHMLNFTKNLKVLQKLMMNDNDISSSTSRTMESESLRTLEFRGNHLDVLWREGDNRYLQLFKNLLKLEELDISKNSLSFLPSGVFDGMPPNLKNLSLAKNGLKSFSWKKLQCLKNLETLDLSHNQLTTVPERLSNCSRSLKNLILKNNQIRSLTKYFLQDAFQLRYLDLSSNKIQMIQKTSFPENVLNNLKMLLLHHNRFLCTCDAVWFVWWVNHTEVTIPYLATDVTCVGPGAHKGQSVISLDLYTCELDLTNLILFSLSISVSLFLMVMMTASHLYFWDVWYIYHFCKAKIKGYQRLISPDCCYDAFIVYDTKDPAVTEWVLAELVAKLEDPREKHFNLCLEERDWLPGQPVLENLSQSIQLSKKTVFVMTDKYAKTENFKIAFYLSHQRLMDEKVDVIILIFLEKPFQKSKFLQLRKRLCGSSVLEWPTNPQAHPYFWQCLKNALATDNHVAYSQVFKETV
The assay can be described thus: hTLR7 in-vitro functional assay (HEK-Blue hTLR7 SEAP reporter). Particulars: HEK-Blue hTLR7 cells, overnight incubation. It is filed as cell-based.

Assay [2] addresses T2, human toll like receptor 8 (hTLR8) (Homo sapiens, UniProt Q9NR97).
T2 construct: host or cells: HEK293 (HEK-Blue hTLR8)
T2 sequence (Q9NR97 27-1041): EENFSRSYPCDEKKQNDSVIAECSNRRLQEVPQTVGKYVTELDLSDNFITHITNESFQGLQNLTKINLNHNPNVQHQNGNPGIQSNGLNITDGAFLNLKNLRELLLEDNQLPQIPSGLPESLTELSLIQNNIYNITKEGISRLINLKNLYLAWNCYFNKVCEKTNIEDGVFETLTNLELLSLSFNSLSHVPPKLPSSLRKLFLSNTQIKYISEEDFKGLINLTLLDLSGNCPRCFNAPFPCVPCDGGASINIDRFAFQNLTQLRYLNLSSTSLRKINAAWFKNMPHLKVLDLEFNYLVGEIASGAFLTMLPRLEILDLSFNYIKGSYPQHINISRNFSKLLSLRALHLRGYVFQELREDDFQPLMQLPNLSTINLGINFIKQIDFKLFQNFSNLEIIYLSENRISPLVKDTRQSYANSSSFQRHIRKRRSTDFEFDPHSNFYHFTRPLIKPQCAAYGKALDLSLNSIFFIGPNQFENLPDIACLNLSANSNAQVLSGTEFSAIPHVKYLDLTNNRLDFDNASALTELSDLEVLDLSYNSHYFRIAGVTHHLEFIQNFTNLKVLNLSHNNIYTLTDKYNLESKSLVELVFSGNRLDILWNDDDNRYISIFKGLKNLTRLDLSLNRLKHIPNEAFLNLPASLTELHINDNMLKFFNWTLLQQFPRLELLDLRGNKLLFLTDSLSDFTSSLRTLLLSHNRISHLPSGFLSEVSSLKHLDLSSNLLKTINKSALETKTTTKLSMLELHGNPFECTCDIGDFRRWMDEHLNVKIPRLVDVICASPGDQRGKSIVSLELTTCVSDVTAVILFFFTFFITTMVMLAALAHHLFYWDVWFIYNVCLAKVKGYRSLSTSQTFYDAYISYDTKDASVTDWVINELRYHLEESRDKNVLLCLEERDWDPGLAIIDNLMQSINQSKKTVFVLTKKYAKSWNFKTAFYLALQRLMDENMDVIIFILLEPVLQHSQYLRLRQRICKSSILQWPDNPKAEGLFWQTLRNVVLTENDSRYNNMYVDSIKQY
The assay can be described thus: hTLR8 in-vitro functional assay (HEK-Blue hTLR8 SEAP reporter). Particulars: HEK-Blue hTLR8 cells, overnight incubation. It is filed as cell-based.

Broadly, the pEC50 is −log10 of the EC50, conventionally taken in molar units. A low value points to a large EC50. In the case of `CCCCc1nc2c(N)nc3cc(CCCN4CCN(C(=O)CCOCCOCCOCCOCCOCCOCCOCCOCCOCCOCCOCCOCCOCCOCCOCCOCCOCCOCCOCCOCCOCCOCCOCCOCCNC(=O)CCOCCOCCOCCOCCNC(=O)CCCOc5c(C)c(C)c6c(c5C)CC[C@@](C)(CCC[C@H](C)CCC[C@H](C)CCCC(C)C)O6)CC4)ccc3c2n1CC(C)(CO)CO` [Compound 2, N-{75-[4-(3-{4-amino-2-butyl-1-[3-hydroxy-2-(hydroxymethyl)-2-methylpropyl]-1H-imidazo[4,5-c]quinolin-7-yl}propyl)piperazin-1-yl]-75-oxo-3,6,9,12,15,18,21,24,27,30,33,36,39,42,45,48,51,54,57,60,63,66,69,72-tetracosaoxapentaheptacont-1-yl}-17-oxo-20-({(2R)-2,5,7,8-tetramethyl-2-[(4R,8R)-4,8,12-trimethyltridecyl]-3,4-dihydro-2H-chromen-6-yl}oxy)-4,7,10,13-tetraoxa-16-azaicosan-1-amide], the pEC50 is 6.45 in assay [1] and 5.30 in assay [2].
